Source: PubChem BioAssay AID248 (DTP/NCI, 2004)
Values joined by “and” are separate entries in the source; they are usually repeats but may differ in a detail not shown here. Equal entries are not always repeated. Inconclusive results and toxic doses are left out. Rule as the data show it: active = T/C of 150% or more; inactive = T/C below 125%.

Tested on: L1210 leukemia ip in BDF1 mice, survival T/C
Experiment: NCI In Vivo Anticancer Drug Screen. Data for tumor model L1210 Leukemia (intraperitoneal) in B6D2F1 (BDF1) mice
Conditions: endpoint: mean survival time, higher = longer survival
Outline: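 Read-out is survival time, reported as the treated-group measurement over the vehicle-control measurement.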

[1] = dose: 100.0 mg/kg/injection, schedule: Q04DX002 (ip), vehicle: Klucel (hydroxypropylcellulose) (HPC)
[2] = dose: 200.0 mg/kg/injection, schedule: Q04DX002 (ip), vehicle: Klucel (hydroxypropylcellulose) (HPC)
[3] = dose: 400.0 mg/kg/injection, schedule: Q04DX002 (ip), vehicle: Klucel (hydroxypropylcellulose) (HPC)
[4] = dose: 100.0 mg/kg/injection, schedule: Q01DX009 (ip), vehicle: saline with Tween-80
[5] = dose: 200.0 mg/kg/injection, schedule: Q01DX009 (ip), vehicle: saline with Tween-80
[6] = dose: 50.0 mg/kg/injection, schedule: Q01DX001 (ip), vehicle: saline
[7] = dose: 100.0 mg/kg/injection, schedule: Q01DX001 (ip), vehicle: saline
[8] = dose: 200.0 mg/kg/injection, schedule: Q01DX001 (ip), vehicle: saline
[9] = dose: 100.0 mg/kg/injection, schedule: Q04DX003 (ip), vehicle: saline with Tween-80
[10] = dose: 200.0 mg/kg/injection, schedule: Q04DX003 (ip), vehicle: saline with Tween-80
[11] = dose: 400.0 mg/kg/injection, schedule: Q04DX003 (ip), vehicle: saline with Tween-80

Measured: T/C

CNC(=S)NC1CC(OC2CC(O)(C(C)=O)Cc3c(O)c4c(c(O)c32)C(=O)c2c(OC)cccc2C4=O)OC(C)C1O (stereo unspecified)
inactive: dose: 2.0 mg/kg/injection, schedule: Q04DX003 (ip), vehicle: water 107 % of control | dose: 3.12 mg/kg/injection, schedule: Q01DX009 (ip), vehicle: saline with Tween-80 115 % of control | dose: 4.0 mg/kg/injection, schedule: Q04DX003 (ip), vehicle: water 106 % of control | dose: 6.25 mg/kg/injection, schedule: Q01DX009 (ip), vehicle: saline with Tween-80 120 % of control | dose: 8.0 mg/kg/injection, schedule: Q04DX003 (ip), vehicle: water 107 % of control | dose: 12.5 mg/kg/injection, schedule: Q04DX003 (ip), vehicle: saline with Tween-80 108 % of control | dose: 16.0 mg/kg/injection, schedule: Q04DX003 (ip), vehicle: water 109 % of control and 110 % of control | dose: 25.0 mg/kg/injection, schedule: Q04DX003 (ip), vehicle: saline with Tween-80 124 % of control | dose: 32.0 mg/kg/injection, schedule: Q04DX003 (ip), vehicle: water 116 % of control | dose: 50.0 mg/kg/injection, schedule: Q04DX003 (ip), vehicle: saline with Tween-80 121 % of control | dose: 64.0 mg/kg/injection, schedule: Q04DX003 (ip), vehicle: water 110 % of control | dose: 125.0 micrograms/kg/injection, schedule: Q04DX003 (ip), vehicle: water 96 % of control | dose: 250.0 micrograms/kg/injection, schedule: Q04DX003 (ip), vehicle: water 103 % of control | dose: 500.0 micrograms/kg/injection, schedule: Q04DX003 (ip), vehicle: water 102 % of control | dose: 1000.0 micrograms/kg/injection, schedule: Q04DX003 (ip), vehicle: water 103 % of control | dose: 2000.0 micrograms/kg/injection, schedule: Q04DX003 (ip), vehicle: water 98 % of control

CCN(CC)Cc1ccccc1COC(=O)c1ccc(C)cc1
inactive: dose: 25.0 mg/kg/injection, schedule: Q04DX002 (ip), vehicle: Klucel (hydroxypropylcellulose) (HPC) 97 % of control | dose: 50.0 mg/kg/injection, schedule: Q04DX002 (ip), vehicle: Klucel (hydroxypropylcellulose) (HPC) 97 % of control | [1] 94 % of control

COC(=O)/C=C/C=C/c1ccc(Br)cc1
inactive: dose: 100.0 mg/kg/injection, schedule: Q04DX003 (ip), vehicle: saline 91 % of control | dose: 200.0 mg/kg/injection, schedule: Q04DX003 (ip), vehicle: saline 92 % of control | dose: 400.0 mg/kg/injection, schedule: Q04DX003 (ip), vehicle: saline 92 % of control

O=C(O)COc1ccccc1F
inactive: [1] 113 % of control | [2] 98 % of control | [3] 98 % of control

Cc1no[n+]([O-])c1C(=O)O
inactive: [1] 95 % of control | [2] 93 % of control

CC(=O)Nc1ccc(C)c(NC(C)=O)c1
inactive: dose: 100.0 mg/kg/injection, schedule: Q04DX003 (ip), vehicle: Klucel (hydroxypropylcellulose) (HPC) 96 % of control | dose: 200.0 mg/kg/injection, schedule: Q04DX003 (ip), vehicle: Klucel (hydroxypropylcellulose) (HPC) 96 % of control | dose: 400.0 mg/kg/injection, schedule: Q04DX003 (ip), vehicle: Klucel (hydroxypropylcellulose) (HPC) 96 % of control

O=C(Nc1cccc(Cl)c1)Nc1cccc(Br)c1
inactive: [1] 96 % of control | [2] 88 % of control | [3] 118 % of control

CC1CN=C(Cc2ccc(NC(=O)c3ccc(C(=O)Nc4ccc(CC5=NCC(C)N5)cc4)cc3)cc2)N1 (stereo unspecified)
inactive: dose: 3.75 mg/kg/injection, schedule: Q01DX Z (ip), vehicle: water 91 % of control | dose: 7.5 mg/kg/injection, schedule: Q01DX Z (ip), vehicle: water 101 % of control

CC(=O)Nc1ccc(/C=N/NC(=O)CNC(=O)NCc2ccccc2)cc1
inactive: dose: 50.0 mg/kg/injection, schedule: Q01DX009 (ip), vehicle: saline with Tween-80 95 % of control | [4] 89 % of control | [5] 89 % of control

Cc1c(C)c(C)c(Br)c(C)c1C
inactive: [6] 108 % of control | [7] 108 % of control | [8] 108 % of control | dose: 400.0 mg/kg/injection, schedule: Q01DX001 (ip), vehicle: saline 108 % of control

Cc1nc(N)[nH]c(=O)c1NC(=O)c1ccc(N)cc1
inactive: dose: 12.5 mg/kg/injection, schedule: Q04DX002 (ip), vehicle: saline with Tween-80 101 % of control | dose: 25.0 mg/kg/injection, schedule: Q04DX002 (ip), vehicle: saline with Tween-80 96 % of control | dose: 50.0 mg/kg/injection, schedule: Q04DX002 (ip), vehicle: saline with Tween-80 99 % of control

Cc1nc(N(C)C)nc(C)c1C#[N+][O-]
inactive: dose: 100.0 mg/kg/injection, schedule: Q01DX001 (ip), vehicle: carboxymethylcellulose (CMC) 94 % of control

CCCCCC#CC(O)(C(=O)OC)c1ccccc1 (stereo unspecified)
inactive: dose: 100.0 mg/kg/injection, schedule: Q01DX001 (ip), vehicle: other 107 % of control | dose: 200.0 mg/kg/injection, schedule: Q01DX001 (ip), vehicle: other 107 % of control | dose: 400.0 mg/kg/injection, schedule: Q01DX001 (ip), vehicle: other 100 % of control

Cc1cccc(NC(=O)c2ccccc2)n1
inactive: [9] 97 % of control | [10] 95 % of control | [11] 92 % of control

c1cc(C2CCCCC2)ccc1-c1ccc(C2CCCCC2)cc1
inactive: [4] 94 % of control | [9] 98 % of control | [5] 94 % of control | [10] 101 % of control | dose: 400.0 mg/kg/injection, schedule: Q01DX009 (ip), vehicle: saline with Tween-80 97 % of control | [11] 90 % of control

CCc1ccc(C2=C(O)C(=O)C(c3ccccc3)=C(O)C2=O)cc1
inactive: dose: 12.5 mg/kg/injection, schedule: Q01DX009 (ip), vehicle: acetone 95 % of control | dose: 25.0 mg/kg/injection, schedule: Q01DX009 (ip), vehicle: acetone 90 % of control | dose: 33.0 mg/kg/injection, schedule: Q01DX009 (ip), vehicle: acetone 96 % of control | dose: 33.0 mg/kg/injection, schedule: Q01DX009 (ip), vehicle: saline 96 % of control | dose: 50.0 mg/kg/injection, schedule: Q01DX009 (ip), vehicle: acetone 101 % of control | dose: 50.0 mg/kg/injection, schedule: Q01DX009 (ip), vehicle: saline 97 % of control | dose: 75.0 mg/kg/injection, schedule: Q01DX009 (ip), vehicle: acetone 118 % of control

C[C@]12C=CC(=O)C=C1CC[C@H]1[C@@H]3CCC(=O)O[C@@]3(C)CC(=O)[C@@]12F
inactive: dose: 50.0 mg/kg/injection, schedule: Q01DX001 (sc), vehicle: steriod suspending solution 102 % of control | dose: 50.0 mg/kg/injection, schedule: Q01DX009 (sc), vehicle: steriod suspending solution 102 % of control | dose: 100.0 mg/kg/injection, schedule: Q01DX001 (sc), vehicle: steriod suspending solution 104 % of control | dose: 100.0 mg/kg/injection, schedule: Q01DX009 (sc), vehicle: steriod suspending solution 100 % of control | dose: 200.0 mg/kg/injection, schedule: Q01DX001 (sc), vehicle: steriod suspending solution 107 % of control | dose: 200.0 mg/kg/injection, schedule: Q01DX009 (sc), vehicle: steriod suspending solution 97 % of control | dose: 400.0 mg/kg/injection, schedule: Q01DX001 (sc), vehicle: steriod suspending solution 113 % of control | dose: 400.0 mg/kg/injection, schedule: Q01DX009 (sc), vehicle: steriod suspending solution 100 % of control

NC(C(=O)O)c1ccc(F)cc1 (stereo unspecified)
inactive: [6] 104 % of control | [7] 104 % of control | [8] 101 % of control
